According to patent US9381191B2, “Imidazopyridine derivatives useful in treating diabetes” (METABRAIN RESEARCH, priority 2012, dated 2016):
Structures can show the parent of a compound that is named as a salt.

How the values were obtained:
INS-1 cells = assay: Stimulation test of insulin secretion by INS-1 cells; assay type: cell-based; details: Rattus norvegicus, INS1, 1 h, insulin secretion by INS-1 cells in response to glucose; for insulin secretion, % of control at 10 µM: read-out: HGP % of ctrl @ 10 μM; for insulin secretion, % of control at 50 µM: read-out: HGP % of ctrl @ 50 μM
Description: The different compounds were tested on an INS-1 beta-pancreatic line in order to evaluate their capability of potentializing the insulin secretion in response to glucose. Very briefly, the cells are cultivated in a culture medium, RPMI 1640 with 10 mM glucose containing 1 mM of sodium pyruvate, 50 μM of 2-mercaptoethanol, 2 mM of glutamine, 10 mM of HEPES, 100 IU/ml of penicillin, 100 μg/ml of streptomycin and 10% of inactivated fetal calf serum, as described by Asfari et al.. For the insulin secretion test, the INS-1 cells are sown and cultivated in 96-well plates. After 3 days of cultivation at 37° C. in a humid atmosphere (95% air/5% CO2), the medium is removed and the cells are incubated for 16 h in a medium containing 5 mM of glucose and 1% of inactivated fetal calf serum. On the day of the test, the cells are washed with a Krebs buffer (pH 7.4) containing 0.1% of bovine albumin and then pre-incubated for 30 min at 37° C. in this same buffer containing 2.8 mM of glucose. Finally, the cells are again washed with Krebs buffer and then incubated for 1 h in the buffer of the secretion test (Krebs, pH 7.4 containing 0.1% of bovine albumin and 3.5 mM of glucose and molecules to be evaluated). At the end of the test, the cell supernatant is recovered in order to measure therein the secreted insulin, by means of an ELISA kit using a rat anti-insulin antibody (ELISA Alpco Cat no. 80-INSRTH-E10). Each condition is tested in triplicate. The 3.5 mM glucose, the 10^−7M GLP-1 and the Forskoline 10^−7/IBMX 10^−5M mixtures are used as positive controls of the test. A compound stimulates the secretion of insulin if this factor is greater than or equal to 130% of the control for a given glucose dose.

isolated rat hepatocytes = assay: Hepatic production of glucose, 3 h incubation; assay type: cell-based, Wistar rat; details: for activity at 50 µM / activity at 100 µM: Hepatocyte, rat hepatocytes; for activity at 50 µM: read-out: HGP % of ctrl @ 50 μM; for activity at 100 µM: read-out: HGP % of ctrl @ 100 μM
Description: The hepatocytes are isolated from Wistar rat liver having fasted for 24 h after perfusion of collagenase in the portal vein. 1) The freshly isolated hepatocytes are sown in 6-well plates coated with collagen and containing an adhesion medium (Williams Medium). After adhesion, the medium is replaced with RPMI 1640 medium without any glucose, containing hydrocortisone (7·10^−5M) for a duration from 16 to 18 h. The next day, the glucose hepatic production test is conducted in a Krebs medium for 3 h. The basal conditions are cells incubated with only Krebs, the stimulated conditions are the cells placed in Krebs+lactate+pyruvate, the produced conditions are the cells exposed to chemical compounds in a Krebs/lactate/pyruvate medium. In the case when the compounds are dissolved in DMSO, all the conditions of the tests are met in the presence of a final concentration of 0.1% DMSO. The positive control of the test is the mercaptopicolinate known for its inhibitory action on hepatic production of glucose via the phosphoenolpyruvate carboxykinase. For short term treatments, the compounds are incubated for 3 h. For long term treatments, the compounds are incubated for 20 h at the moment when the hepatocytes are cultivated in RPMI and then added during the hepatic production test for 3 h. At the end of the 3 hours of incubation, the supernatant is recovered for measurement of glucose with a colorimetric method using glucose oxidase. The cells are lysed with a 0.1% NaOH aqueous solution in order to measure the amount of protein with the Lowry method. The results are expressed in mmol of glucose per mg of protein.

Structure (SMILES)	insulin secretion, % of control at 10 µM (INS-1 cells) [%]	insulin secretion, % of control at 50 µM (INS-1 cells) [%]	activity at 50 µM (isolated rat hepatocytes) [%]	activity at 100 µM (isolated rat hepatocytes) [%]	inhibition of hepatic production of glucose (isolated rat hepatocytes; dose of 100 μM)	inhibition of hepatic production of glucose (isolated rat hepatocytes; with two doses)
CCOC(=O)COCc1nc2ccccn2c1C#Cc1ccccc1 [Derivative 1, ethyl 2-((3-(phenylethynyl)-imidazo[1,2-a]pyridin-2-yl)-methoxy)acetate]	121	211	70	56	–	–
CCOC(=O)COCc1nc2ccccn2c1C#Cc1ccc(F)cc1 [Derivative 3, ethyl 2-((3-((4-fluorophenyl)-ethynyl)imidazo[1,2-a]pyridin-2-yl)methoxy)acetate]	130	472	73	60	–	–
CCOC(=O)COCc1nc2ccccn2c1C#Cc1cccc(C#N)c1 [Derivative 14, ethyl 2-((3-((3-cyanophenyl)-ethynyl)imidazo[1,2-a]pyridin-2-yl)methoxy)acetate]	100	242	86	73	–	–
CCOC(=O)COCc1nc2ccccn2c1C#Cc1ccccc1F [Derivative 25, ethyl 2-((3-((2-fluorophenyl)-ethynyl)imidazo[1,2-a]pyridin-2-yl)methoxy)acetate]	134	226	83	73	–	–
CCOC(=O)COCc1nc2ccccn2c1C#Cc1ccccc1C(F)(F)F [Derivative 26, ethyl 2-((3-((2-(trifluoromethyl)-phenyl)ethynyl)imidazo[1,2-a]pyridin-2-yl)methoxy)acetate]	138	246	78	67	–	–
O=C(O)COCc1nc2ccccn2c1C#Cc1ccc(OC(F)(F)F)c(F)c1 [Derivative 39, 2-((3-((3-fluoro-4-(trifluoro-methoxy)phenyl)ethynyl)imidazo [1,2-a]pyridin-2-yl)methoxy)acetic acid]	121	137	–	–	–	–
CN(C)CCNC(=O)COCc1nc2ccccn2c1C#Cc1cccc(C(F)(F)F)c1 [Derivative 55, N-(2-(dimethylamino)ethyl)-2-((3-((3-(trifluoromethyl)-phenyl)ethynyl)imidazo[1,2-a]-pyridin-2-yl)methoxy)acetamide]	130	135	–	–	–	–
O=C(COCc1nc2ccccn2c1C#Cc1ccc(F)cc1)NO [Derivative 59, 2-((3-((4-fluorophenyl)ethynyl)-imidazo[1,2-a]pyridin-2-yl)methoxy)-N-hydroxy acetamide]	134	220	97	45	strongest inhibitions	–
COC(=O)CN(C)Cc1nc2ccccn2c1C#Cc1cccc(C(F)(F)F)c1 [Derivative 72, methyl 2-(methyl((3-((3-(trifluoromethyl)-phenyl)ethynyl)-imidazo[1,2-a]pyridin-2-yl)methyl)amino)acetate]	172	151	–	–	–	–
COC(=O)c1ccccc1OCc1nc2ccccn2c1C#Cc1ccc(F)cc1 [Derivative 76, methyl 2-((3-((4-fluorophenyl)-ethynyl)imidazo[1,2-a]pyridin-2-yl)methoxy)benzoate]	156	202	67	59	strongest inhibitions	–
COC(=O)c1ccccc1OCc1nc2ccccn2c1C#Cc1ccccc1 [Derivative 78, methyl 2-((3-(phenylethynyl)-imidazo[1,2-a]pyridin-2-yl)methoxy)benzoate]	197	152	51	44	–	strongest inhibitions
COC(=O)c1ccccc1OCc1nc2ccccn2c1C#Cc1cccc(C#N)c1 [Derivative 79, methyl 2-((3-((3-cyanophenyl)-ethynyl)imidazo[1,2-a]pyridin-2-yl)methoxy)benzoate]	128	152	86	74	–	–
COC(=O)c1cccc(OCc2nc3ccccn3c2C#Cc2cccc(C(F)(F)F)c2)c1 [Derivative 81, methyl 3-((3-((3-(trifluoromethyl)-phenyl)ethynyl)imidazo[1,2-a]pyridin-2-yl)methoxy)benzoate]	142	134	76	47	strongest inhibitions	–
COC(=O)c1cccc(OCc2nc3ccccn3c2C#Cc2ccccc2)c1 [Derivative 87, methyl 3-((3-(phenylethynyl)-imidazo[1,2-a]pyridin-2-yl)methoxy)benzoate]	182	167	43	25	–	strongest inhibitions
O=C(O)c1ccccc1OCc1nc2ccccn2c1C#Cc1ccc(F)cc1 [Derivative 88, 2-((3-((4-fluorophenyl)ethynyl)-imidazo[1,2-a]pyridin-2-yl)methoxy)benzoic acid]	138	263	67	50	strongest inhibitions	–
CCOC(=O)CN(C)Cc1nc2ccccn2c1C#Cc1cccc(C(F)(F)F)c1 [Derivative 101, ethyl 2-[methyl-[[3-[2-[3-(trifluoromethyl)phenyl]ethynyl]imidazo[1,2-a]pyridin-2-yl]-methyl]amino]acetate hydrochloride]	163	111	–	–	–	–
CCOC(=O)CN(C)Cc1nc2ccc(Cl)cn2c1C#Cc1cccc(C(F)(F)F)c1 [Derivative 102, ethyl 2-[[6-chloro-3-[2-[3-(trifluoromethyl)phenyl]ethynyl]imidazo[1,2-a]pyridin-2-yl]methyl-methyl-amino]acetate]	176	107	–	–	–	–
CCOC(=O)[C@@H](N)CSCc1nc2ccccn2c1C#Cc1cccc(C(F)(F)F)c1 [Derivative 113, ethyl (2R)-2-amino-3-[[3-[2-[3-(trifluoromethyl)phenyl]ethynyl]imidazo[1,2-a]pyridin-2-yl]methyl-sulfanyl]propanoate]	136	112	–	–	–	–
CC(C)(CO)C(OCc1nc2ccccn2c1C#Cc1cccc(C(F)(F)F)c1)C(=O)O (centres unmarked) [Derivative 129, 4-hydroxy-3,3-dimethyl-2-[[3-[2-[3-(trifluoromethyl)phenyl]ethynyl]imidazo[1,2-a]pyridin-2-yl]methoxy]butanoic acid]	109	146	–	–	–	–
COc1cccn2c(C#Cc3cccc(C(F)(F)F)c3)c(CSCCO)nc12 [Derivative 130, 2-[[8-methoxy-3-[2-[3-(trifluoromethyl)phenyl]ethynyl]imidazo[1,2-a]pyridin-2-yl]methylsulfanyl]ethanol]	150	114	–	–	–	–
OCCSCc1nc2ccc(Cl)cn2c1C#Cc1cccc(C(F)(F)F)c1 [Derivative 131, 2-[[6-chloro-3-[2-[3-(trifluoromethyl)phenyl]ethynyl]imidazo[1,2-a]pyridin-2-yl]methylsulfanyl]ethanol]	131	–	–	–	–	–
